According to patent publication US20250170114A1, “METHODS OF TREATMENT USING T-TYPE CALCIUM CHANNEL MODULATORS” (Praxis Precision Medicines, Inc., priority 2022, published 2025):
“Also recorded” adds a separate entry of the source.

How the values were obtained:
[1] = test system: participants with ET; experiment: Phase 2 trial: Clinical Global Impression-Improvement (CGI-I); type: in vivo, human
Text: The Clinical Global Impression-Improvement (CGI-I) (Guy 1976) assesses the clinician's impression of the participant's functioning prior to and after initiating study medication. The clinician should use his/her total clinical experience with this patient population and rate the current severity of the participant's essential tremor symptoms on a 7-point scale from 1 (Normal, not at all ill) to 7 (Among the most extremely ill patients). Accordingly, in some embodiments, the methods of the present invention result in a decrease in CGI-I score compared to baseline, e.g., prior to treatment. Key safety measures included clinical laboratory evaluations, 12-lead ECG, C-SSRS, and vital signs. Key efficacy assessments included the TETRAS Performance subscale, TETRAS Upper Limb using accelerometry, CGI, and PGI-C. Blood samples were obtained for the determination of study drug plasma concentrations using a validated bioanalytical method and may also be used for method development and/or metabolite characterization. In both phases, key safety measures included clinical laboratory evaluations, 12-lead ECG, C-SSRS, and vital signs. Key efficacy assessments included the TETRAS Performance subscale, TETRAS Upper Limb using accelerometry, CGI, PGI-C, TETRAS ADL Subscale, QUEST, BDI-II, and BAI. Blood samples were obtained for the determination of study drug and metabolite plasma concentrations.

[2] = test system: participants with ET; experiment: Phase 2 trial Part B: Beck Anxiety Inventory (BAI); type: in vivo, human
Method: The Beck Anxiety Index (BAI) is a brief measure of anxiety with a specific attention on somatic symptoms of anxiety that was developed as a measure aimed at discriminating between anxiety and depression (Beck et al 1988). The BAI contains 21 questions about the common symptoms of anxiety that the subject could have experienced during the past week (including the day the BAI is administered). The common symptoms of anxiety include numbness and tingling, sweating not due to heat, and fear of the worst happening. It is designed for individuals who are of 17 years of age or older and takes 5 to 10 minutes to complete. Each answer is scored on a scale value of 0 (not at all) to 3 (severely). Higher total scores indicate more severe anxiety symptoms. The standardized cutoffs are the following: 0-7: minimal, 8-15: mild, 16-25: moderate, 26-63: severe.
In both phases, key safety measures included clinical laboratory evaluations, 12-lead ECG, C-SSRS, and vital signs. Key efficacy assessments included the TETRAS Performance subscale, TETRAS Upper Limb using accelerometry, CGI, PGI-C, TETRAS ADL Subscale, QUEST, BDI-II, and BAI. Blood samples were obtained for the determination of study drug and metabolite plasma concentrations.

[3] = test system: harmaline-induced motor impairment in male SD rats; experiment: Wire grip test with harmaline in SD rats; type: in vivo, rat; conditions: harmaline 30 mg/kg, dose of 1, 3 and 10 mg/kg
Text: (§1) Each of six groups of male SD rats were subjected to a tremor assessment, followed by three ADL-like measures including open field test, rotarod test, and wire grip test after receiving doses of either vehicle, Formula (I), or propranolol, followed by either saline or harmaline, as outlined below in Table 22 below.
Fifteen minutes after the rotarod test, rats were subjected to a wire grip test using an 80 cm long and 7 mm in diameter wire placed at a height of 50 cm.

[4] = test system: rat spontaneous locomotor activity (sLMA); experiment: Rat spontaneous locomotor activity (sLMA) assay; type: in vivo; conditions: rats, 0-30 min; compound of Formula (I) 1 mg/kg p.o., propranolol 1 or 3 mg/kg i.p., alone or in combination
Method: […] Rat sLMA was measured from 0-30 min (0 minutes is 60 minutes after administration of the compound of Formula (I) and 20 minutes after administration of propranolol).

[5] = test system: harmaline-induced tremor in male SD rats; experiment: Tremor assessment (tremor score 0-4) with harmaline in SD rats; type: in vivo, rat; conditions: harmaline 30 mg/kg, doses of 1, 3 and 10 mg/kg, listed as compound of Formula (I)
Text: as §1, with “below. Twenty minutes after administration of harmaline or saline, the rats were subjected to a tremor assessment using the score criteria outlined in the table below.” for “below.”

[6] = Part B OLT (FAS), Day 7, n = 13
[7] = Part B OLT (FAS), Day 21, n = 12
[8] = Part B OLT (FAS), Day 42, n = 11
[9] = Part B RWD (RWAS), Day 56, Study drug, n = 6
[10] = Part B RWD (RWAS), Day 70, Study drug, n = 5

CC(C)(C)NC(=O)CN1CCC(CNC(=O)c2cc(F)cc(Cl)c2)CC1.Cl [Study drug]
CGI-I Score 5 minimally worse ([1]; Part B OLT (FAS), Day 7, n = 12): 1 n (%)
CGI-I Score 5 minimally worse ([1]; Part B RWD (RWAS), Day 70, study drug group, n = 5, vs randomization baseline): 1 n (%)
BAI Score Mild (8-15) [2, 6]: 3 n (%)
BAI Score Minimal (0-7) [2, 6]: 7 n (%)
BAI Score Moderate (16-25) [2, 6]: 3 n (%)
BAI Score Severe (26-63) [2, 6]: 0 n (%)
BAI Score Mild (8-15) [2, 7]: 1 n (%)
BAI Score Minimal (0-7) [2, 7]: 9 n (%)
BAI Score Moderate (16-25) [2, 7]: 2 n (%)
BAI Score Severe (26-63) [2, 7]: 0 n (%)
BAI Score Mild (8-15) [2, 8]: 1 n (%)
BAI Score Minimal (0-7) [2, 8]: 9 n (%)
BAI Score Moderate (16-25) [2, 8]: 1 n (%)
BAI Score Severe (26-63) [2, 8]: 0 n (%)
BAI Score Mild (8-15) [2, 9]: 2 n (%)
BAI Score Minimal (0-7) [2, 9]: 4 n (%)
BAI Score Moderate (16-25) [2, 9]: 0 n (%)
BAI Score Severe (26-63) [2, 9]: 0 n (%)
BAI Score Mild (8-15) [2, 10]: 0 n (%)
BAI Score Minimal (0-7) [2, 10]: 4 n (%)
BAI Score Moderate (16-25) [2, 10]: 0 n (%)
BAI Score Severe (26-63) [2, 10]: 1 (20.0) n (%)
change in BAI scores ([2]; Part B open-label titration phase): shift in BAI scores from mild to minimal anxiety
latency to fall in wire grip test vs vehicle and harmaline only ([3]; listed as Formula (I)): significantly attenuated
latency to fall in wire grip test vs vehicle and harmaline only ([3]; listed as compound of Formula (I)): significantly attenuated decrease in fall off latency
total sLMA (total distance travelled) [4]: do not significantly reduce
average tremor score vs vehicle and harmaline only [5]: significantly reduced; also recorded: significant inhibition
